Where a name gives a salt, the structure may show the parent alone.
Test system: inflammation induced by tetradecanoyl phorbol acetate (TPA)
Assay: TPA Inflammation Inhibition Test
Format: in vivo, mice
Settings: mouse ear edema, topical, 100 mg/ear, four hours
Description: The TPA model mimics many of the inflammatory change which occur in human skin diseases such as psoriasis, since elevated levels of inflammatory arachidonic acid metabolites are found and an influx of polymorphonuclear leukocytes is observed. The test procedure used to evaluate the compounds of Formula (I) is as follows: the test compound (100 mg/ear) is applied to both ears of mice in an appropriate vehicle, such as acetone, and then the inflammatory stimulus (TPA) is applied to the right ear. Four hours later, the edema is measured by removing standard size discs from the ears using a biopsy punch. A control group of animals receives TPA in vehicle applied to the right ear, and vehicle alone to the left ear.

SMILES | % Inhibition of Control Swelling
COc1ccc(CNCCC(=O)c2ccc(F)cc2)c2ccccc12 [Example 7, 1-(4-Fluorophenyl)-3-[(4-methoxy-1-naphthaIenyl)-methylamino]-1-propanone Hydrochloride] | 21%
CC(C)c1ccc2c(c1)CCC1C(C)(CNCCC(=O)c3ccccc3)CCCC21C (stereo not shown) [Example 21, 1-Phenyl-3-([4a-dimethyl-7-(1-methylethyl)-1,2,3,4,4a,9,10,10aoctahydro-1-phenanthren-1-yl]-methylamino)-1-propanone 4-Methylbenzenesulfonate] | 31%
CCCCCCC(C)OCCCC(=O)c1ccc(F)cc1 (stereo not drawn) [Example 37, 1-(4-Fluorophenyl)-4-(d-1-methylheptyloxy)-1-butanone] | 20%
CC(C)c1ccc2c(c1)CCC1C(C)(CNCCC(=O)c3ccc(F)cc3)CCCC21C.Cl (stereo not shown) [Example 52, 3-([1,4a-Dimethyl-1,2,3,4,4a,9,10,10a-octahydro-7-(1-methylethyl)-1-phenanthrenyl]methylamino)-1-(4-fluorophenyl)-1-propanone Hydrochloride] | 40%

From patent publication US4948813A, “Benzylketone phospholipase A2 inhibitors” (E. I. Du Pont de Nemours and Company, priority 1989, dated 1990)
